Experimental data taken from US11266145B2, “Compositions comprising protocatechuic acid and methods of use” (priority 2020, dated 2022).
Several values for one entry are separate records, joined by “and”; a condition that tells them apart may be missing. Identical values can stand only once.

Columns and labels:
[1] = in vivo; cited from earlier work
[2] = cited from earlier work
SARS CoV-2 virus = experiment: Second laboratory coupon test: virus dried on PCA-coated coupons (stainless steel, K95 mask, plastic), recovered and titrated on Vero E6 cells by CPE; type: cell-based; design: : unit not given here; conditions: for Average Log10 TCID50 / Average TCID50: 3 replicates; for  / Log10 TCID50 / TCID50: single replicates; for TCID50: virus dried 45 minutes-1 h
Protocol: The second laboratory utilized test coupons made of solid stainless steel, plastic and K95 mask were coated in 30% w/v PCA in 70% ethanol. Each coupon was dipped in PCA, allowed to dry, dipped again and allowed to dry with the opposite side of the coupon facing up. Once dry, 200 ul virus was added to each coupon and allowed to dry (45 minutes-1 h drying time). Virus was recovered by adding 2 ml DMEM/F12 media and washing the coupon, without scraping so as not to dislodge PCA crystals. A yellow color change in the media was observed indicating acidification of the media upon addition to the PA-coated coupon. The recovered virus was added to empty 96 well plates and diluted 1:10 down the plate. This was then added to Vero E6 cells that had grown to ˜70% confluence. Cytotoxicity controls without virus and recovery controls without PCA were also done in the same manner. After addition to the cells, plates were read at day 4 for the presence of cytopathic effect (CPE) due to viral infection of cells. Note that cytotoxicity and CPE cannot be differentiated in this assay, thus any dead cells are marked as positive.
Cytotoxicity was seen up to 1:100 dilution for the K95, and 1:10 for the stainless steel and plastic coupons. […] The SS=stainless steel, K95=K95 mask and P=plastic. +PCA means coupons coated with PCA. No PCA (e.g. SS-1) indicates virus recovery controls with no PCA coating that had virus dried and recovered.

[3] = system: 2019 Novel Coronavirus, Isolate USA-WA1/2020 (SARS-CoV-2); experiment: TCID50 test of SARS-CoV-2 recovered from PCA-coated test substrates (plastic, cloth, mesh), titrated on Vero E6 cells; type: cell-based; conditions: for log difference: versus virus control on substrate; for TCID50 Log10/mL: single replicates
Protocol: The Test Article (TA) used for this study was Protocatechuic Acid (PCA). The TA was received as an off-white powder. The PCA solution was prepared to be 30% PCA w/v in Ethanol. The PCA was prepared in 5 g increments to pre-warmed 50-60 mL ethanol until dissolved for a total of 30 g PCA in the solution. Additional ethanol was then added volumetrically to be equivalent to 100 mL.
The Test Substrates (TS) were a Plastic-type material sourced from a clear plastic laboratory bottle (Corning 431731 Octagonal bottle, 150 mL), cloth (the top layer of a N95 mask [3M 8210]), and a Sponsor-provided wire mesh to serve as a substrate for the TA. All test substrates were cut to approximately 1″×1″ in size. The test substrates were submerged into the PCA solution and dried horizontally to allow for even coating. After the substrate was thoroughly dried, the test substrate was re-submerged into the PCA solution for an additional coating.
The Test Virus used for this study was 2019 Novel Coronavirus, Isolate USA-WA1/2020 (SARS-CoV-2). The virus was stored at approximately […] prior to use. The multiplicity of infection (MOI) was 0.01 TCID50/cell.
The Cell Culture used for the TCID50 test was African Green Monkey Kidney Cells (Vero E6 cells) that were maintained in Dulbecco's […] with 10% fetal calf serum (DMEM-2). All growth media contained heat-inactivated fetal calf serum and antibiotics.
The test design is shown below in Table 1.
The Test Substrate was coated with PCA as described above. The test substrates was treated with PCA twice and allowed to fully dry overnight. In general, the time from the first coat to the next day's virus exposure was approximately 24 hours.
The treated Test Substrate plus TA was placed into a sterile 6 well cell culture plate and approximately 100 μL total of a ≤1×10^6 TCID50/mL SARS-CoV-2 virus was such that 50 μL of virus was layered on each sides of the treated test substrates. This was the procedure used for the initial Day 1 experiment.
For the confirmatory test, in an attempt to increase the recorded titer of the controls, the treated Test Substrate plus TA was placed into a sterile 6 well cell culture plate and the same amount of virus was layered onto both sides of the test substrate. However, an addition 50 μL of DMEM was added to each side to reduce the inactivation of the virus due to desiccation. Additionally, a glass coverslip was also added to help mitigate against evaporation.
After application of the virus, the virus was contact with the Test substrates for approximately 10 minutes (Groups 1, 2, and 3, Control groups 7, 8, and 9), 60 minutes (Groups 4, 5, and 6, Control Groups 10, 11, and 12). Each substrate per time per test article was performed in duplicate.
A cell culture-only control was included to indicate that cells without any TA or virus remain healthy throughout the assay. Virus-only controls without substrate was added for each timepoint to verify that the assay was performing as expected.
After the incubation time, the treated substrate was washed with 1 mL of cell culture media (DMEM-2) for approximately 5-10 minutes within the 6 well cell culture plate and the glass cover slip removed if necessary. This was the equivalent to a 10-fold dilution. The plate was gently stirred via an orbital shaker to enhance the recovery of the virus.
For the TCID50, the cell culture media (DMEM-2) used to wash the Test Substrate was serially diluted 10 fold and transferred into respective wells of a 96-well plate which contained a monolayer of African Green Monkey Kidney Cells (Vero E6 cells) for titration. The TCID50 assay was performed non-GLP according to IITRI Standard Operating Procedures for the assay. The TCID50 titers was calculated using the method of Reed-Meunch.

[4] = K95 mask coupon coated with PCA versus uncoated coupon
[5] = K95 mask coupon coated with PCA
[6] = plastic coupon coated with PCA versus uncoated coupon
[7] = stainless steel coupon coated with PCA versus uncoated coupon
[8] = stainless steel coupon coated with PCA
[9] = confirmatory run (Day 2), PCA on cloth, 10 min
[10] = confirmatory run (Day 2), PCA on cloth, 60 min
[11] = confirmatory run (Day 2), PCA on mesh, 10 min
[12] = confirmatory run (Day 2), PCA on mesh, 60 min
[13] = confirmatory run (Day 2), PCA on plastic, 10 min
[14] = confirmatory run (Day 2), PCA on plastic, 60 min
[15] = initial run (Day 1), PCA on cloth, 60 min incubation
[16] = initial run (Day 1), PCA on mesh, 60 min incubation
[17] = initial run (Day 1), PCA on plastic, 10 min incubation
[18] = initial run (Day 1), PCA on plastic, 60 min incubation

O=C(O)c1ccc(O)c(O)c1 [PCA, Protocatechuic acid]
LD50 [1]: 800 mg/kg
solubility in water [2]: approximately 10 mg/ml
Log Reduction to Virus Controls (SARS CoV-2 virus; [4]): 2.45
Percent Log Reduction (SARS CoV-2 virus; [4]): 99.65%
Average Log10 TCID50 (SARS CoV-2 virus; [5]): 2.10
Average TCID50 (SARS CoV-2 virus; [5]): 182.4589
 (SARS CoV-2 virus; [5]): 0.03162 and 0.05012 and 0.3162
Log10 TCID50 (SARS CoV-2 virus; [5]): 2.50 and 2.30 and 1.50
TCID50 (SARS CoV-2 virus; [5]): 316.2278 and 199.5262 and 31.62
Log Reduction to Virus Controls (SARS CoV-2 virus; [6]): 3.94
Percent Log Reduction (SARS CoV-2 virus; [6]): 99.99%
Average Log10 TCID50 (SARS CoV-2 virus; plastic coupon coated with PCA): 1.91
Average TCID50 (SARS CoV-2 virus; plastic coupon coated with PCA): 88
 (SARS CoV-2 virus; plastic coupon coated with PCA): 0.1995 and 0.07943 and 0.1136
Log10 TCID50 (SARS CoV-2 virus; plastic coupon coated with PCA): 1.70 and 2.10 and 1.94
TCID50 (SARS CoV-2 virus; plastic coupon coated with PCA): 50.12 and 125.8925 and 87.99
Log Reduction to Virus Controls (SARS CoV-2 virus; [7]): 2.93
Percent Log Reduction (SARS CoV-2 virus; [7]): 99.88%
Average Log10 TCID50 (SARS CoV-2 virus; [8]): 2.37
Average TCID50 (SARS CoV-2 virus; [8]): 298.9493
 (SARS CoV-2 virus; [8]): 0.01995 and 0.1259 and 0.03162
Log10 TCID50 (SARS CoV-2 virus; [8]): 2.70 and 1.90 and 2.50
TCID50 (SARS CoV-2 virus; [8]): 501.1872 and 79.43 and 316.2278
Log average [3, 9]: 4.25 TCID50 Log10/mL
log difference [3, 9]: −1.13 log
Log average [3, 10]: 2.75 TCID50 Log10/mL
log difference [3, 10]: −2.38 log
Log average [3, 11]: 4.63 TCID50 Log10/mL
log difference [3, 11]: −1.13 log
Log average [3, 12]: 4.38 TCID50 Log10/mL
log difference [3, 12]: −0.88 log
Log average [3, 13]: 4.38 TCID50 Log10/mL
log difference [3, 13]: −1.13 log
Log average [3, 14]: 3.63 TCID50 Log10/mL
log difference [3, 14]: −1.50 log
TCID50 Log10/mL ([3]; confirmatory run (Day 2, extra DMEM and coverslip), PCA on cloth, 10 min): 4.25 TCID50 Log10/mL
TCID50 Log10/mL ([3]; confirmatory run (Day 2, extra DMEM and coverslip), PCA on cloth, 60 min): 2.00 TCID50 Log10/mL and 3.50 TCID50 Log10/mL
TCID50 Log10/mL ([3]; confirmatory run (Day 2, extra DMEM and coverslip), PCA on mesh, 10 min): 4.75 TCID50 Log10/mL and 4.50 TCID50 Log10/mL
TCID50 Log10/mL ([3]; confirmatory run (Day 2, extra DMEM and coverslip), PCA on mesh, 60 min): 4.50 TCID50 Log10/mL and 4.25 TCID50 Log10/mL
TCID50 Log10/mL ([3]; confirmatory run (Day 2, extra DMEM and coverslip), PCA on plastic, 10 min): 4.25 TCID50 Log10/mL and 4.50 TCID50 Log10/mL
TCID50 Log10/mL ([3]; confirmatory run (Day 2, extra DMEM and coverslip), PCA on plastic, 60 min): 3.50 TCID50 Log10/mL and 3.75 TCID50 Log10/mL
virucidal effect on the SARS CoV2 virus ([3]; in 10 minutes, virus droplet on PCA coating, aqueous environment): virucidal effect
TCID50 Log10/mL ([3]; initial run (Day 1), PCA on cloth (N95 top layer), 10 min incubation): 2.75 TCID50 Log10/mL
log difference ([3]; initial run (Day 1), PCA on cloth, 10 min): −1.25 log
Log average ([3]; initial run (Day 1), PCA on cloth, 10 min incubation): 2.75 TCID50 Log10/mL
log difference ([3]; initial run (Day 1), PCA on cloth, 60 min): −1.00 log
Log average [3, 15]: 2.75 TCID50 Log10/mL
TCID50 Log10/mL [3, 15]: 2.50 TCID50 Log10/mL and 3.00 TCID50 Log10/mL
log difference ([3]; initial run (Day 1), PCA on mesh, 10 min): −0.25 log
Log average ([3]; initial run (Day 1), PCA on mesh, 10 min incubation): 3.38 TCID50 Log10/mL
log difference ([3]; initial run (Day 1), PCA on mesh, 60 min): −2.00 log
Log average [3, 16]: 1.50 TCID50 Log10/mL
TCID50 Log10/mL [3, 16]: 1.00 TCID50 Log10/mL and 2.00 TCID50 Log10/mL
log difference ([3]; initial run (Day 1), PCA on plastic, 10 min): −0.63 log
Log average [3, 17]: 3.75 TCID50 Log10/mL
TCID50 Log10/mL [3, 17]: 3.75 TCID50 Log10/mL
log difference ([3]; initial run (Day 1), PCA on plastic, 60 min): −1.13 log
Log average [3, 18]: 2.88 TCID50 Log10/mL
TCID50 Log10/mL [3, 18]: 3.25 TCID50 Log10/mL and 2.50 TCID50 Log10/mL
TCID50 Log10/mL ([3]; initial run (Day 1), PCA on wire mesh, 10 min incubation): 3.50 TCID50 Log10/mL and 3.25 TCID50 Log10/mL
